Consider five compounds from US20220228054A1, “FLUORESCENT NAPHTHALIMIDE POLYMERS AND SOLUTIONS THEREOF FOR SCALE CONTROL IN AQUEOUS SYSTEMS” (NOURYON CHEMICALS INTERNATIONAL B.V., priority 2019, published 2022).

Type in all cases: physicochemical
Data set [1] is described as follows: Solubility in water. On the procedure:
The procedure of Example 4 in RU2640339 was repeated. An initial charge of 84 g of deionized water and 1 g of ammonium persulfate was placed in a 250 ml glass reactor with inlet ports for an agitator, water cooled condenser, thermocouple. 15 g of acrylic acid (0.208 moles, 99.73 mole percent of polymer) was weighed into a beaker and then 0.15 g of N-allyl-4-methoxy-1,8-naphthalimide (Monomer Example 2, formula weight 267, 0.00056 moles, […] of polymer) was added to the beaker and mixed until the powdered fluorescent monomer dissolved. This solution was then added to the reactor, with stirring. The reaction mixture was very cloudy, indicating insolubility of the N-allyl-4-methoxy-1,8-naphthalimide in the reaction mixture. The reactor contents were slowly heated to 85° C. When the temperature reached about 80° C., a strong exotherm was observed. The reaction mixture started to thicken and within minutes, a sticky, intractable mass was formed and started to rise up the stir shaft. An attempt was made to remove some of the reaction product from the reactor and try and dissolve it in water.

Data set [2] in a line: LC/FLD and GC/MS fluorescence of monomer species. The following applies: for excitation maximum: at the emission maximum; for emission maximum: zero order excitation. On the procedure: The sample of this example was initially analyzed by LC/MS to identify the retention times of target peaks. The same sample was then analyzed using similar, but weaker LC conditions by LC/FLD. The first step was to collect emission spectra with zero order excitation, this allows determining the emission maximum, which was 410 nm for the N-allyl-4-propoxy-1,8-naphthalimide and 450 nm for the N-allyl-4,5-dipropoxy-1,8-naphthalimide species.
The next step was to collect excitation spectra at the emission maximum for each compound. This allows determining the individual excitation maximum, which was 375 nm and 395 nm for the N-allyl-4-propoxy-1,8-naphthalimide and the N-allyl-4,5-dipropoxy-1,8-naphthalimide species respectively. The final step is to collect a chromatogram at the individual excitation and emission maxima. The latter two steps are each done with time programming the wavelengths, so each only require a single chromatogram.
Then the sample was analyzed by GC/MS to estimate the actual concentrations of the two components of interest. The ratio of the area percent by fluorescence and mass spec is the estimated relative fluorescence intensity. […] This assumes that the GC/MS area percent is the actual weight percent, which should be a close approximation.

Data set [3] is described as follows: Solubility in acrylic acid. The following applies: 1.39 g in 10.5 g of acrylic acid. On the procedure: The solubility of the monomer reaction product of Monomer Example 2 in acrylic acid was measured in the following manner. 10 g of acrylic acid was taken and the dried monomer reaction product of Monomer Example 2 was added in 0.2 g aliquots. The Monomer Example 2 reaction product started to become insoluble after 1.39 g was added. Next, 0.5 g of acrylic acid was added to form a clear solution. The final solution had 1.39 g of reaction product of Example 2 in 10.5 g of acrylic acid. The weight of reaction product of Example 2 was 11.7% of the total solution weight.

Regarding `C=CCOc1ccc2c3c(cccc13)C(=O)N(CCC)C2=O` [Monomer Example 4, N-propyl-4-allyloxy-1,8-naphthalimide], the “solubility in water (in words)” value in data set [1] was “insolubility”.

With `C=CCN1C(=O)c2cccc3c(OCCOCCOCCOC)ccc(c23)C1=O` [Monomer Example 5, N-allyl-4-(methoxy, triethylene glycol) 1,8-naphthalimide], the solubility in water result in data set [1] (25° C., pH 7) was “less than 0.1 grams per 100 mis of water”.

In data set [2], `C=CCN1C(=O)c2ccc(OCCC)c3c(OCCC)ccc(c23)C1=O` [N-allyl-4,5-dipropoxy-1,8-naphthalimide] showed an excitation maximum of 395 nm and an emission maximum of 450 nm.

Take `C=CCN1C(=O)c2cccc3c(OC)ccc(c23)C1=O` [Monomer Example 2, N-allyl-4-methoxy-1,8-naphthalimide]: the “solubility in acrylic acid (weight of reaction product in clear solution)” value in data set [3] was 11.7 % of the total solution weight.

Regarding `C=CCN1C(=O)c2cccc3c(OCCC)ccc(c23)C1=O` [Monomer Example 3, N-allyl-4-propoxy-1,8-naphthalimide], in data set [2], the excitation maximum came out at 375 nm and the emission maximum was determined as 410 nm.
